Measurements as given in patent publication US10597388B2, “Pyridazinone herbicides” (FMC CORPORATION, priority 2014, dated 2020).

Assays:
Test in all cases: Test D controlled growth environment herbicide test, pre- and postemergence
Assay type in all cases: in vivo
[1] = test system: chamomile (scentless chamomile, Matricaria inodora)
Procedure, shortened: (§1)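 Pre-emergence: seeds sown in silt loam soil were sprayed with compound in a non-phytotoxic solvent mix containing surfactant. Post-emergence: plants at 2 to 18 cm (1- to 4-leaf stage) in peat moss/vermiculite medium got the same formulation. Visual 0–100 rating versus controls after 14 to 21 d.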

[2] = test system: blackgrass (Alopecurus myosuroides)
Procedure, shortened: as §1

[3] = test system: wheat, winter (winter wheat, Triticum aestivum)
Procedure, shortened: as §1

[4] = test system: bromegrass, downy (downy bromegrass, Bromus tectorum)
Procedure, shortened: as §1

[5] = test system: lambsquarters (Chenopodium album)
Procedure, shortened: as §1

[6] = test system: deadnettle (henbit deadnettle, Lamium amplexicaule)
Procedure, shortened: as §1

[7] = test system: barley, winter (winter barley, Hordeum vulgare)
Procedure, shortened: as §1

[8] = test system: field poppy (Papaver rhoeas)
Procedure, shortened: as §1

[9] = test system: foxtail, green (green foxtail, Setaria viridis)
Procedure, shortened: as §1

[10] = test system: chickweed (common chickweed, Stellaria media)
Procedure, shortened: as §1

[11] = test system: ryegrass, Italian (Italian ryegrass, Lolium multiflorum)
Procedure, shortened: as §1

[12] = test system: wheat, spring (spring wheat, Triticum aestivum)
Procedure, shortened: as §1

[13] = test system: barley, spring (spring barley, Hordeum vulgare)
Procedure, shortened: as §1

[14] = Postemergence, 31 g ai/ha, scale 0 to 100 (0 no effect, 100 complete control)
[15] = Postemergence, 125 g ai/ha, visual rating on scale 0 (no effect) to 100 (complete control), 14 to 21 d
[16] = Postemergence, 250 g ai/ha, scale 0 to 100 (0 no effect, 100 complete control)
[17] = postemergence, 62 g ai/ha, scale 0 to 100, 0 no effect, 100 complete control
[18] = Preemergence, 62 g ai/ha, scale 0 to 100 (0 no effect, 100 complete control)
[19] = Preemergence, 125 g ai/ha, scale 0 to 100 (0 no effect, 100 complete control)
[20] = Preemergence, 250 g ai/ha, scale 0 to 100 (0 no effect, 100 complete control)

In the case of `CCOC(=O)Oc1c(C)nn(C)c(=O)c1-c1c(C)sc2c(C)cc(C)cc12` [Compound 83], the “Chamomile plant response rating” value [1, 14] is reported as 95, the “Plant response rating, Chamomile” value [1, 15] is reported as 100 and the “Plant response rating, Chamomile” value [1, 16] is reported as 100. For the same compound, the “Plant response rating, Chamomile” value [1, 17] was 100, the “Blackgrass plant response rating” value [2, 14] was 65 and the “Plant response rating, Blackgrass” value [2, 15] was 75. The “Plant response rating, Blackgrass” value [2, 16] was 80, the “Plant response rating (scale of 0 to 100), Blackgrass” value ([2]; Preemergence, 31 g ai/ha) was 20 and the “Plant response rating, Blackgrass” value [2, 18] was 60. The “Plant response rating, Blackgrass” value [2, 19] was 70, the “Plant response rating, Blackgrass” value [2, 20] was 85 and the “Plant response rating, Blackgrass” value [2, 17] was 70. The “Wheat, Winter plant response rating” value [3, 14] was 0, the “Plant response rating, Wheat, Winter” value [3, 15] was 5 and the “Plant response rating, Wheat, Winter” value [3, 16] was 10. The “Plant response rating (scale of 0 to 100), Wheat, Winter” value ([3]; Preemergence, 31 g ai/ha) was 0, the “Plant response rating (scale of 0 to 100), Wheat, Winter” value ([3]; Preemergence, 62 g ai/ha) was 0 and the “Plant response rating, Wheat, Winter” value [3, 19] was 5. For the same compound, the “Plant response rating, Wheat, Winter” value [3, 20] was 25, the “Plant response rating, Wheat, Winter” value [3, 17] was 0 and the “Bromegrass, Downy plant response rating” value [4, 14] was 25. The “Plant response rating, Bromegrass, Downy” value [4, 15] was 50, the “Plant response rating, Bromegrass, Downy” value [4, 16] was 70 and the “Plant response rating (scale of 0 to 100), Bromegrass, Downy” value ([4]; Preemergence, 31 g ai/ha) was 20. The “Plant response rating, Bromegrass, Downy” value [4, 18] was 30, the “Plant response rating, Bromegrass, Downy” value [4, 19] was 60 and the “Plant response rating, Bromegrass, Downy” value [4, 20] was 40. The “Plant response rating, Bromegrass, Downy” value [4, 17] was 35, the “Lambsquarters plant response rating” value [5, 14] was 95 and the “Plant response rating, Lambsquarters” value [5, 15] was 100. For the same compound, the “Plant response rating, Lambsquarters” value [5, 16] was 100, the “Plant response rating (scale of 0 to 100), Lambsquarters” value ([5]; Preemergence, 31 g ai/ha) was 95 and the “Plant response rating (scale of 0 to 100), Lambsquarters” value ([5]; Preemergence, 62 g ai/ha) was 65. The “Plant response rating, Lambsquarters” value [5, 19] was 100, the “Plant response rating, Lambsquarters” value [5, 20] was 100 and the “Plant response rating, Lambsquarters” value [5, 17] was 100. The “Deadnettle plant response rating” value [6, 14] was 15, the “Plant response rating, Deadnettle” value [6, 15] was 55 and the “Plant response rating, Deadnettle” value [6, 16] was 60. For the same compound, the “Plant response rating (scale of 0 to 100), Deadnettle” value ([6]; Preemergence, 31 g ai/ha) was 0, the “Plant response rating (scale of 0 to 100), Deadnettle” value ([6]; Preemergence, 62 g ai/ha) was 0 and the “Plant response rating, Deadnettle” value [6, 19] was 15. For the same compound, the “Plant response rating, Deadnettle” value [6, 20] was 100, the “Plant response rating, Deadnettle” value [6, 17] was 25 and the “Barley, Winter plant response rating” value [7, 14] was 0. The “Plant response rating, Barley, Winter” value [7, 15] was 0, the “Plant response rating, Barley, Winter” value [7, 16] was 15 and the “Plant response rating (scale of 0 to 100), Barley, Winter” value ([7]; Preemergence, 31 g ai/ha) was 0. For the same compound, the “Plant response rating, Barley, Winter” value [7, 18] was 0, the “Plant response rating, Barley, Winter” value [7, 19] was 0 and the “Plant response rating, Barley, Winter” value [7, 20] was 40. The “Plant response rating, Barley, Winter” value [7, 17] was 0, the “Field Poppy plant response rating” value [8, 14] was 100 and the “Plant response rating, Field Poppy” value [8, 15] was 100. For the same compound, the “Plant response rating, Field Poppy” value [8, 16] was 100, the “Plant response rating (scale of 0 to 100), Field Poppy” value ([8]; Preemergence, 31 g ai/ha) was 100 and the “Plant response rating (scale of 0 to 100), Field Poppy” value ([8]; Preemergence, 62 g ai/ha) was 100. The “Plant response rating, Field Poppy” value [8, 19] was 100, the “Plant response rating, Field Poppy” value [8, 20] was 100 and the “Plant response rating, Field Poppy” value [8, 17] was 100. The “Foxtail, Green plant response rating” value [9, 14] was 75, the “Plant response rating, Foxtail, Green” value [9, 15] was 90 and the “Plant response rating, Foxtail, Green” value [9, 16] was 100. The “Plant response rating (scale of 0 to 100), Foxtail, Green” value ([9]; Preemergence, 31 g ai/ha) was 15, the “Plant response rating (scale of 0 to 100), Foxtail, Green” value ([9]; Preemergence, 62 g ai/ha) was 50 and the “Plant response rating, Foxtail, Green” value [9, 19] was 100. For the same compound, the “Plant response rating, Foxtail, Green” value [9, 20] was 100, the “Plant response rating, Foxtail, Green” value [9, 17] was 90 and the “Chickweed plant response rating” value [10, 14] was 100. For the same compound, the “Plant response rating, Chickweed” value [10, 15] was 100, the “Plant response rating, Chickweed” value [10, 16] was 100 and the “Plant response rating (scale of 0 to 100), Chickweed” value ([10]; Preemergence, 31 g ai/ha) was 100. For the same compound, the “Plant response rating (scale of 0 to 100), Chickweed” value ([10]; Preemergence, 62 g ai/ha) was 100, the “Plant response rating, Chickweed” value [10, 19] was 100 and the “Plant response rating, Chickweed” value [10, 20] was 100. The “Plant response rating, Chickweed” value [10, 17] was 100, the “Ryegrass, Italian plant response rating” value [11, 14] was 80 and the “Plant response rating, Ryegrass, Italian” value [11, 15] was 90. For the same compound, the “Plant response rating, Ryegrass, Italian” value [11, 16] was 90, the “Plant response rating (scale of 0 to 100), Ryegrass, Italian” value ([11]; Preemergence, 31 g ai/ha) was 40 and the “Plant response rating (scale of 0 to 100), Ryegrass, Italian” value ([11]; Preemergence, 62 g ai/ha) was 75. For the same compound, the “Plant response rating, Ryegrass, Italian” value [11, 19] was 90, the “Plant response rating, Ryegrass, Italian” value [11, 20] was 100 and the “Plant response rating, Ryegrass, Italian” value [11, 17] was 85. The “Wheat, Spring plant response rating” value [12, 14] was 0, the “Plant response rating, Wheat, Spring” value [12, 15] was 5 and the “Plant response rating, Wheat, Spring” value [12, 16] was 20. For the same compound, the “Plant response rating (scale of 0 to 100), Wheat, Spring” value ([12]; Preemergence, 31 g ai/ha) was 0, the “Plant response rating (scale of 0 to 100), Wheat, Spring” value ([12]; Preemergence, 62 g ai/ha) was 0 and the “Plant response rating, Wheat, Spring” value [12, 19] was 10. The “Plant response rating, Wheat, Spring” value [12, 20] was 35, the “Plant response rating, Wheat, Spring” value [12, 17] was 0 and the “Barley, Spring plant response rating” value [13, 14] was 0. The “Plant response rating, Barley, Spring” value [13, 15] was 5, the “Plant response rating, Barley, Spring” value [13, 16] was 10 and the “Plant response rating (scale of 0 to 100), Barley, Spring” value ([13]; Preemergence, 31 g ai/ha) was 0. The “Plant response rating, Barley, Spring” value [13, 18] was 0, the “Plant response rating, Barley, Spring” value [13, 19] was 0 and the “Plant response rating, Barley, Spring” value [13, 20] was 5. The “Plant response rating, Barley, Spring” value [13, 17] was 5.
